From patent EP0777471B1, “INHIBITION OF LEUKOTRIENE BIOSYNTHESIS WITH UREA DERIVATIVES” (MINNESOTA MINING AND MANUFACTURING COMPANY, priority 1994, dated 1996)
Where “and” joins values, the source holds several entries; their conditions need not be identical. Identical values can stand only once. Like-named read-outs stand apart in the source and are kept apart here.

Assays:
[1] = tested on: production of Leukotriene C4 in mouse peritoneal macrophages; experiment: In vitro mouse peritoneal macrophage Leukotriene C4 inhibition (zymosan-stimulated, LTC4 radioimmunoassay); assay type: cell-based; conditions: Zymosan 50 µg/mL
Procedure: The test method described below measures the ability of compounds to inhibit the production of Leukotriene C4 in mouse peritoneal macrophages.
Mice (female, CD-1, weighing 25 g) are euthanized by exposure to carbon dioxide. The peritoneal cavity is exposed by peeling back the abdominal skin. A 5 mL portion of media (M199 containing 1% fetal bovine serum, 100 units/mL of penicillin, 100 µg/mL of streptomycin, 20 units/mL of heparin and no glutamine) is injected into the exposed peritoneal cavity of each mouse. The lavage fluid is removed and pooled to yield approximately1 X 10^6 macrophages/mL. A 2 mL portion of lavage fluid is added to each well of a 24 well sterile multidish and the macrophages are allowed to adhere to the plate for 2 hours at 37°C in a 5% carbon dioxide atmosphere. The media is removed and each well is washed with 2 mL of phosphate buffered saline (PBS). A 1 mL portion of media, without heparin, but containing 5 µCi/mL of 3H-myoinositol is added to each well and the plates are incubated overnight at 37°C in a 5% carbon dioxide atmosphere. The media is removed and the cells are washed twice with 2 mL portions of PBS. A 1 mL portion of Puck's saline formulation A containing 1 mM calcium chloride, 1 mM magnesium chloride and 10 mM lithium chloride is added to each well. (The Puck's formulation is made first as a 10X solution which contains 4 g of potassium chloride, 80 g of sodium chloride and 10 g of glucose per liter. The Puck's saline formulation A is made using 10 mL of the 10X Puck's formulation, 0.47 mL of 7.5% sodium bicarbonate and 2 mL of 1M N-2-hydroxyethylpiperazine-N'-2-ethanesulfonic acid per 100 mL.)
Compounds are dissolved in dimethyl sulfoxide. Compounds are tested at concentrations of 10, 1 and 0.1 µM. Each concentration is tested in duplicate.
A 1 µL portion of compound solution or vehicle (DMSO) is added to each well and the plates are incubated for 15 minutes at 37°C in a 5% carbon dioxide atmosphere. Zymosan is then added to provide a final concentration of 50 µg/mL in each well and the plate is incubated for 1 to 2 hours at 37°C in a 5% carbon dioxide atmosphere.
Following incubation 200 µL portions of media are transferred to 12 X 75 mm tubes. The tubes are either assayed immediately or stored at -20°C until they can be assayed.
The media is assayed for the presence of Leukotriene C4 by radioimmunoassay which is performed according to the manufacturer's (Advanced Magnetics; Cambridge, MA) instructions.

[2] = tested on: production of Leukotriene B4; experiment: Rat ex vivo Leukotriene B4 inhibition (oral dosing, blood challenged with A23187); assay type: in vivo, Rats; conditions: 50 mg/Kg, two hours post dose
Procedure: The test method described below measures the ability of a compound when administered orally to rats to inhibit the production of Leukotriene B4 in their blood which is drawn and challenged.
Rats (CD, male, non-fasted, 250 g) are lightly anesthetized with carbon dioxide and an approximately 0.75 mL sample of whole blood is obtained via cardiac puncture. The sample is dispensed into 12 X 75 mm polypropylene tubes containing 8-10 µL of 10,000 units/mL heparin, mixed and then maintained on ice. The rats are allowed to recover approximately one hour then dosed orally with compound dissolved in PEG 400 at a 5 mL/Kg volume. Five (5) rats are utilized per group. Two (2) hours post dose the rats are again anesthetized with carbon dioxide and the blood sampled again via cardiac puncture.
Duplicate 200 µL portions of blood are added to 1.0 mL polypropylene tubes. A 10 µL portion of 1mM A23187 Calcium Ionophore in dimethyl sulfoxide/Tris buffer is added to each tube. The tubes are gently vortexed then incubated in a 37°C water bath for 30 minutes. The tubes are then centrifuged at 4000 rpm for 10 minutes. 50 µL portions of plasma are transferred to 1.0 mL tubes containing 200 µL of methanol. The tubes are vortexed then placed in the freezer overnight.
The tubes are removed from the freezer then centrifuged at 4000 rpm for 10 minutes. […] portions of the methanol/plasma supernatant and 10 µL methanol dilutions of LTB4 standard curve are transferred to 96 well v-bottom microtiter plates. The plates are vacuum dried at 40°C. A 40 µL portion of LTB4 radioimmunoassay buffer is added to each well. The plate is bath sonicated for 5 minutes then assayed according to the manufacturer's (Advanced Magnetics; Cambridge, MA) instructions. Percent inhibition values are obtained by comparing the level of LTB4 in the post-dose samples to the level in the pre-dose samples according to the equation below. % Inhibition =((LTB4 pre-dose) - (LTB4 post-dose))/((LTB4 pre-dose))X 100 [formula]

[3] = tested on: production of Leukotriene B4 (LTB4); experiment: Dog ex vivo Leukotriene B4 inhibition (oral dosing, blood challenged with calcium ionophore); assay type: in vivo, beagle dogs; conditions: each entry one dog, negative = stimulation of LTB4 production; for inhibition at 5 mg/kg: Canis lupus familiaris, po
Procedure: The test method described below measures the ability of a compound when administered orally to dogs to inhibit the production of Leukotriene B4 (LTB4) in their blood which is drawn and challenged at selected time points.
The test is conducted in beagle dogs (male and female; about 10 Kg). Prior to starting, the neck area of the beagle is shaved to allow easy access to the jugular vein. A 3-4 mL sample of blood is drawn from the jugular vein into a heparinized vacutainer. The dog is then dosed using a tube long enough to reach its stomach. The compound is dissolved in PEG 400 at a concentration such that the appropriate dose can be administered in approximately 5 mL. Immediately after the compound is given, a flush using 5 mL of vehicle is given to rinse the dosing tube. At selected time points following the dose, a 3-4 mL sample of blood is drawn.
The blood samples that have been drawn are challenged as soon as possible. A 0.5 mL portion of blood is aliquoted into 3 tubes (1 mL microtiter tubes). A 1 µL portion of 25 mM calcium ionophore in dimethyl sulfoxide is added to 2 of the tubes. A 1 µL portion of dimethyl sulfoxide is added to the third tube. The tubes are lightly mixed then placed in a 37°C water bath for 30 minutes. The tubes are centrifuged at 11,000 rpm for 3 minutes and the plasma supernatant is transferred to clean tubes. A 50 µL portion of this plasma is added to a I mL microtiter tube containing 200 µL of methanol. The tubes are placed in the freezer at -20°C for at least 1 hour then centrifuged at 2000 rpm for 10 minutes. A 10 µL portion of the methanol supematant is dried under vacuum at ambient temperature and then reconstituted in LTB4 buffer. The amount of LTB4 in the sample is determined by radioimmunoassay performed according to the manufacturer's (Advanced Magnetics; Cambridge, MA) instructions. Percent inhibition values are obtained by comparing the level of LTB4 in the post-dose sample to the level in the pre-dose sample according to the equation below. % Inhibition =((LTB4 predose) - (LTB4 postdose))/((LTB4 predose))X 100 [formula]
A number of the compounds that are useful in the practice of the method of the invention were tested. The results are shown in Table 15 below where each entry represents the results from one dog. A negative number indicates stimulation of LTB4 production. All compounds were tested at a dose of 5 mg/Kg.

IC50 [1] [µM]	Structure (SMILES)	%I [2]	other results
1	CN(O)C(=O)Nc1ccc([N+](=O)[O-])cc1 [Compound 13, 1-hydroxy-1-methyl-3-(4-nitrophenyl)urea]	23%	–
0.3	CC(C)N(O)C(=O)Nc1ccc([N+](=O)[O-])cc1 [Compound 30, 1-hydroxy-1-(1-methylethyl)-3-(4-nitrophenyl)urea]	13%	–
< 1	CCC(CC)N(O)C(=O)Nc1ccc(SC)cc1 [Compound 39, 1-(1-Ethylpropyl)-1-hydroxy-3-[4-(methylthio)phenyl]urea]	59%	–
< 1	CCOC(=O)CCCCCN(O)C(=O)Nc1ccccc1 [Compound 50, 6-(1-hydroxy-3-phenylureido)-1-hexanoic acid ethyl ester]	6%	–
< 1	Cc1cc(C)c(NC(=O)N(O)C(C)C)cc1C [Compound 67, 1-Hydroxy-1-(1-methylethyl)-3-(2,4,5-trimethylphenyl)urea]	23%	–
< 10	CCC(CC)N(O)C(=O)N(C)c1ccccc1 [Compound 74, 1-Hydroxy-1-(1-ethylpropyl)-3-methyl-3-phenylurea]	7%	–
< 0.1	CCC(CC)N(O)C(=O)Nc1ccccc1Oc1ccccc1 [Compound 76, 1-Hydroxy-1-(1-ethylpropyl)-3-(2-phenoxyphenyl)urea]	13%	–
< 1	CCC(CC)N(O)C(=O)Nc1ccc(Cc2ccccc2)cc1 [Compound 78, 1-Hydroxy-1-(1-ethylpropyl)-3-(4-benzylphenyl)urea]	0%	–

Continued, molecule first:

Structure (SMILES)	IC50 [1] [µM]	%I [2]	other results
CSc1ccc(NC(=O)N(O)C(C)C)cc1 [Compound 15, 1-Hydroxy-1-(1-methylethyl)-3-[4-(methylthio)phenyl]urea]	< 0.1	–	% Inhibition 1 hour ([3]; 5 mg/Kg, 1 hour post dose): 95%; % Inhibition 2 hour ([3]; 5 mg/Kg, 2 hour post dose): 98%; % Inhibition 4 hour ([3]; 5 mg/Kg, 4 hour post dose): 98% and 96% and 31%; % Inhibition 6 hour ([3]; 5 mg/Kg, 6 hour post dose): 84% and 14%; inhibition at 5 mg/kg ([3]; 1 h, 1 hour post dose, read-out: % Inhibition 1 hour): 100%; inhibition at 5 mg/kg ([3]; 2 h, 2 hour post dose, read-out: % Inhibition 2 hour): 99%
CSc1cccc(NC(=O)N(O)C2CCCCC2)c1 [Compound 32, 1-Cyclohexyl-1-hydroxy-3-[3-(methylthio)phenyl]urea]	0.4	28%	–
O=C(Nc1ccccc1)N(O)C1CCCCCCC1 [Compound 36, 1-Cyclooctyl-1-hydroxy-3-phenylurea]	0.2	7%	–
COc1ccc(NC(=O)N(O)C2CCCCCCC2)cc1 [Compound 37, 1-Cyclooctyl-1-hydroxy-3-(4-methoxyphenyl)urea]	< 1	7%	–
O=C(Nc1ccc([N+](=O)[O-])cc1)N(O)C1CCCCCCC1 [Compound 38, 1-Cyclooctyl-1-hydroxy-3-(4-nitrophenyl)urea]	< 1	2%	–
CCC(CC)N(O)C(=O)Nc1ccc([N+](=O)[O-])cc1 [Compound 40, 1-(1-Ethylpropyl)-1-hydroxy-3-(4-nitrophenyl)urea]	1	0%	–
CC(CCN(O)C(=O)Nc1ccccc1)CC(C)(C)C (stereo not drawn) [Compound 49, 1-hydroxy-3-phenyl-1-(3,5,5-trimethylhexyl)urea]	< 1	13%	–
O=C(Nc1ccccc1)N(O)C1CCCCCC1 [Compound 51, 1-cycloheptyl-1-hydroxy-3-phenylurea]	0.6	22%	–
CCCCCCCCN(O)C(=O)Nc1ccccc1 [Compound 52, 1-hydroxy-1-octyl-3-phenylurea]	< 0.1	9%	–
CCCCCCCCCCCCN(O)C(=O)Nc1ccccc1 [Compound 53, 1-dodecyl-1-hydroxy-3-phenylurea]	< 1	1%	–
CCCCCN(O)C(=O)Nc1ccccc1 [Compound 56, 1-hydroxy-1-pentyl-3-phenylurea]	< 0.1	6% and 13%	–
CC(C)N(O)C(=O)Nc1ccc(S(C)(=O)=O)cc1 [Compound 62, 1-Hydroxy-1-(1-methylethyl)-3-[4-(methylsulfonyl)phenyl]urea]	6.4	18%	–
CC(C)N(O)C(=O)Nc1ccc([S+](C)[O-])cc1 (stereo not drawn) [Compound 63, 1-Hydroxy-1-(1-methylethyl)-3-[4-(methylsulfinyl)phenyl]urea]	4	92%	–
CCC(C)N(O)C(=O)Nc1ccccc1 (stereo not drawn) [Compound 69, 1-Hydroxy-1-(1-methylpropyl)-3-phenylurea]	< 1	71%	–
CCCC(CCC)N(O)C(=O)Nc1ccccc1 [Compound 70, 1-Hydroxy-1-(1-propylbutyl)-3-phenylurea]	< 1	0%	–
CCCC(CC)N(O)C(=O)Nc1ccccc1 (stereo not drawn) [Compound 71, 1-Hydroxy-1-(1-ethylbutyl)-3-phenylurea]	< 1	5%	–
CN(O)C(=O)N(C)c1ccccc1 [Compound 75, 1-Hydroxy-1,3-dimethyl-3-phenylurea]	< 10	0%	–
CCC(CC)N(O)C(=O)Nc1cccc(Oc2ccccc2)c1 [Compound 77, 1-Hydroxy-1-(1-ethylpropyl)-3-(3-phenoxyphenyl)urea]	< 0.1	7%	–
